Article PMC12259978 (Scientific Reports, 2025)

Tests used:
tyrosinase [1] = biological target: T1, tyrosinase (Agaricus bisporus, UniProt C7FF04); assay: Tyrosinase inhibitory assay; type: biochemical; conditions: read-out: % inhibition of tyrosinase
tyrosinase [2] = biological target: T1, tyrosinase; assay: Enzyme kinetic study; type: biochemical

T1 sequence (C7FF04 whole entry): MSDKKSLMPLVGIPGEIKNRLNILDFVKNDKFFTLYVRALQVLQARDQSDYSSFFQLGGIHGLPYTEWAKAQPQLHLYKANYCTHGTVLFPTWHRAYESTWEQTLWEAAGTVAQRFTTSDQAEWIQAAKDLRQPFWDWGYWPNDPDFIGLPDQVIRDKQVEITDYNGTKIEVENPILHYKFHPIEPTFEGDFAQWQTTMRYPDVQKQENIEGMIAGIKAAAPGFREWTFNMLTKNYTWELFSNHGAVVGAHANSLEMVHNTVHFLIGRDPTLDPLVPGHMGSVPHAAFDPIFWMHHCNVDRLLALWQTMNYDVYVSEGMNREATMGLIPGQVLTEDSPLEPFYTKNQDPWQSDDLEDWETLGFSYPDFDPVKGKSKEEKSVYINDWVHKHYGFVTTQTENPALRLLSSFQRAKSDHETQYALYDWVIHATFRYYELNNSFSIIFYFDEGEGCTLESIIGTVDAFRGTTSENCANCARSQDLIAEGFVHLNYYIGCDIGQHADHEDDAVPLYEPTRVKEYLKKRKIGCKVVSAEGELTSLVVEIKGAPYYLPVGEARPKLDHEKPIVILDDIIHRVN

Compound	inhibition at 50 µM (tyrosinase [1])	Ki (tyrosinase [2])	type of inhibition (tyrosinase [2]; Lineweaver-Burk plot, Vmax unchanged, Km increased)
O=C(CSc1nc2ccccc2cc1C=Nn1c(S)nnc1-c1ccccc1)Nc1ccccc1 [12a, 2-((3-(((3-mercapto-5-phenyl-4H-1,2,4-triazol-4-yl)imino)methyl)quinolin-2-yl)thio)-N-phenylacetamide]	32.2%	–	–
O=C(CSc1nc2ccccc2cc1C=Nn1c(S)nnc1-c1ccccc1)Nc1ccc(Cl)cc1 [12d, N-(4-chlorophenyl)-2-((3-(((3-mercapto-5-phenyl-4H-1,2,4-triazol-4-yl)imino)methyl)quinolin-2-yl)thio)acetamide]	66%	–	–
COc1ccc(NC(=O)CSc2nc3ccccc3cc2C=Nn2c(S)nnc2-c2ccccc2)cc1 [12f, 2-((3-(((3-Mercapto-5-phenyl-4H-1,2,4-triazol-4-yl)imino)methyl)quinolin-2-yl)thio)-N-(4-methoxyphenyl)acetamide]	40.9%	–	–
Cc1ccc(NC(=O)CSc2nc3ccccc3cc2C=Nn2c(S)nnc2-c2ccccc2)cc1 [12g, 2-((3-(((3-Mercapto-5-phenyl-4H-1,2,4-triazol-4-yl)imino)methyl)quinolin-2-yl)thio)-N-(p-tolyl)acetamide]	51.4%	–	–
Cc1cccc(NC(=O)CSc2nc3ccccc3cc2C=Nn2c(S)nnc2-c2ccccc2)c1C [12i, N-(2,3-dimethylphenyl)-2-((3-(((3-mercapto-5-phenyl-4H-1,2,4-triazol-4-yl)imino)methyl)quinolin-2-yl)thio)acetamide]	43.8%	–	–
O=C(CSc1nc2ccccc2cc1C=Nn1c(S)nnc1-c1ccccc1)NCCc1ccccc1 [12j, 2-((3-(((3-Mercapto-5-phenyl-4H-1,2,4-triazol-4-yl)imino)methyl)quinolin-2-yl)thio)-N-phenethylacetamide]	86.6%	9.06 µM	competitive inhibitor

Results, then the compound that gave them:

inhibition at 50 µM (tyrosinase [1])	Ki (tyrosinase [2])	type of inhibition (tyrosinase [2]; Lineweaver-Burk plot, Vmax unchanged, Km increased)	Compound
55.7%	–	–	O=C(CSc1nc2ccccc2cc1C=Nn1c(S)nnc1-c1ccccc1)Nc1ccccc1Cl [12b, N-(2-chlorophenyl)-2-((3-(((3-mercapto-5-phenyl-4H-1,2,4-triazol-4-yl)imino)methyl)quinolin-2-yl)thio)acetamide]
48.3%	–	–	O=C(CSc1nc2ccccc2cc1C=Nn1c(S)nnc1-c1ccccc1)Nc1ccc(Cl)cc1Cl [12e, N-(2,4-dichlorophenyl)-2-((3-(((3-mercapto-5-phenyl-4H-1,2,4-triazol-4-yl)imino)methyl)quinolin-2-yl)thio)acetamide]
46%	–	–	Cc1ccccc1NC(=O)CSc1nc2ccccc2cc1C=Nn1c(S)nnc1-c1ccccc1 [12h, 2-((3-(((3-Mercapto-5-phenyl-4H-1,2,4-triazol-4-yl)imino)methyl)quinolin-2-yl)thio)-N-(o-tolyl)acetamide]
